Reference: article PMC2913121 (Nature chemistry, 2010)

Assays:
SjGST [1] = molecular target: T1, SjGST (Schistosoma japonicum, UniProt P08515); assay: CDNB conjugation assay; assay type: biochemical; details: aniline up to 20 mM
SjGST [2] = molecular target: T1, SjGST; assay: SjGST-templated acylhydrazone DCL, amplification by HPLC; assay type: binding; details: DCL synthesis in the presence of a large excess of the inhibitor

T1 sequence (P08515 whole entry): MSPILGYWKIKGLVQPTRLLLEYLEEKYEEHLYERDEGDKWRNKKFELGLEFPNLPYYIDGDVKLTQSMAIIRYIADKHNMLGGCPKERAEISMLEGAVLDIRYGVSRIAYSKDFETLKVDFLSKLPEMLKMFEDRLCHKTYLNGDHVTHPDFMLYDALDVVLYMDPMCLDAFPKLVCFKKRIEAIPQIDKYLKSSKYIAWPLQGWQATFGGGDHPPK

Nc1ccccc1 [aniline]
SjGST GSH conjugation activity in the presence of the additive (SjGST [1]): retained GSH conjugation activity

C=C(CC)C(=O)c1ccc(OCC(=O)O)c(Cl)c1Cl [ethacrynic acid]
effect on DCL component amplification (SjGST [2]): completely suppressed
